Reference: patent US20160376237A1, “NOVEL PYRIDINE DERIVATIVES” (Hoffmann-La Roche Inc., priority 2014, published 2016)

Target: T1, human CB2 receptors (Homo sapiens, UniProt P34972)
T1 construct: expressed in transfected cells; host or cells: CHO cells
Test: cAMP assay
Type: cell-based
Method: CHO cells expressing human CB1 or CB2 receptors are seeded 17-24 hours prior to the experiment 50.000 cells per well in a black 96 well plate with flat clear bottom (Corning Costar #3904) in DMEM (Invitrogen No. 31331), 1×HT supplement, with 10% fetal calf serum and incubated at 5% CO2 and 37° C. in a humidified incubator. The growth medium was exchanged with Krebs Ringer Bicarbonate buffer with 1 mM IBMX and incubated at 30° C. for 30 min. Compounds were added to a final assay volume of 100 μl and incubated for 30 min at 30° C. Using the cAMP-Nano-TRF detection kit the assay (Roche Diagnostics) was stopped by the addition of 50 μl lysis reagent (Tris, NaCl, 1.5% Triton X100, 2.5% NP40, 10% NaN3) and 50 μl detection solutions ([…] mAb Alexa700-cAMP 1:[…] Ruthenium-2-AHA-cAMP) and shaken for 2 h at room temperature. The time-resolved energy transfer is measured by a TRF reader (Evotec Technologies GmbH), equipped with a ND:YAG laser as excitation source. The plate is measured twice with the excitation at 355 nm and at the emission with a delay of 100 ns and a gate of 100 ns, total exposure time 10 s at 730 (bandwidth 30 nm) or 645 nm (bandwidth 75 nm), respectively. The FRET signal is calculated as follows: FRET=T730-Alexa730-P(T645-B645) with P=Ru730-B730/Ru645-B645, where T730 is the test well measured at 730 nM, T645 is the test well measured at 645 nm, B730 and B645 are the buffer controls at 730 nm and 645 nm, respectively. cAMP content is determined from the function of a standard curve spanning from […] to 0.13 nM cAMP.
EC50 values were determined using Activity Base analysis (ID Business Solution, Limited).

T1 sequence (P34972 whole entry): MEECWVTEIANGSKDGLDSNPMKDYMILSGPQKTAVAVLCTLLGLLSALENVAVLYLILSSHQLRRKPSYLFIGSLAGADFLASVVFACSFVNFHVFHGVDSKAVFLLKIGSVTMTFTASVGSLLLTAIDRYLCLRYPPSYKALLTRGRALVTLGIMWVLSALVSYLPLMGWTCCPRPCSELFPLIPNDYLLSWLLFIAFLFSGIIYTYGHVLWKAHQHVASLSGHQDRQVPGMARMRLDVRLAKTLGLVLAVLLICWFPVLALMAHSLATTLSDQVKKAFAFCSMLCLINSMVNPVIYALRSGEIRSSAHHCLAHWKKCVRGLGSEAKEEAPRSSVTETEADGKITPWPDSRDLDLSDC

Row | SMILES | EC50
1 | NC(=O)CC1(NC(=O)c2ccc(N3CCC4(C3)CC4(F)F)c(OCC3CC3)n2)COC1 (stereo not drawn) [Example 32, N-[3-(2-Amino-2-oxoethyl)oxetan-3-yl]-6-(cyclopropylmethoxy)-5-(2,2-difluoro-5-azaspiro[2.4]heptan-5-yl)pyridine-2-carboxamide] | 60.2 nM
2 | CSCC[C@H](NC(=O)c1ccc(OCC2CC2)c(Cl)n1)C(N)=O [Example 16, N-[(2S)-1-Amino-4-methylsulfanyl-1-oxobutan-2-yl]-6-chloro-5-(cyclopropylmethoxy)pyridine-2-carboxamide] | 973 nM
3 | COC1CN(c2ccc(C(=O)NC(C)(C)c3noc(C)n3)nc2OCC2CC2)C1 [Example 8, 6-(Cyclopropylmethoxy)-5-(3-methoxyazetidin-1-yl)-N-[2-(5-methyl-1,2,4-oxadiazol-3-yl)propan-2-yl]pyridine-2-carboxamide] | 86.6 nM
4 | NC(=O)[C@@H]1CC(F)(F)CN1C(=O)c1ccc(N2CCC(O)(C(F)(F)F)C2)c(OCC2CC2)n1 (stereo partly drawn) [Example 28, (2S)-1-[6-(Cyclopropylmethoxy)-5-[3-hydroxy-3-(trifluoromethyl)pyrrolidin-1-yl]pyridine-2-carbonyl]-4,4-difluoropyrrolidine-2-carboxamide] | 1680 nM
5 | CC(C)C[C@H](NC(=O)c1ccc(N2CC(C)(F)C2)c(OCC2CC2)n1)C(N)=O [Example 33, N-[(2S)-1-Amino-4-methyl-1-oxopentan-2-yl]-6-(cyclopropylmethoxy)-5-(3-fluoro-3-methylazetidin-1-yl)pyridine-2-carboxamide] | 19.6 nM
6 | Cc1nc(C(C)(C)NC(=O)c2ccc(OCC3CC3)c(-c3cccc(Cl)c3)n2)no1 [Example 9, 6-(3-Chlorophenyl)-5-(cyclopropylmethoxy)-N-[2-(5-methyl-1,2,4-oxadiazol-3-yl)propan-2-yl]pyridine-2-carboxamide] | 42.4 nM
7 | CCC(CC)(NC(=O)c1ccc(N2CC(F)(C3CC3)C2)c(OCC2CC2)n1)C(=O)NCCCF [Example 41, 5-(3-Cyclopropyl-3-fluoroazetidin-1-yl)-6-(cyclopropylmethoxy)-N-[3-(3-fluoropropylcarbamoyl)pentan-3-yl]pyridine-2-carboxamide] | 669 nM
8 | CC(C)(NC(=O)c1ccc(-c2ccc(Cl)cc2)c(OCC2CC2)n1)c1ncco1 [Example 3, 5-(4-Chlorophenyl)-6-(cyclopropylmethoxy)-N-[2-(1,3-oxazol-2-yl)propan-2-yl]pyridine-2-carboxamide] | 144 nM
9 | CCC(CC)(NC(=O)c1ccc(N2CC(OC)C2)c(OCC2CC2)n1)C(=O)N1CC(F)C1 [Example 26, 6-(Cyclopropylmethoxy)-N-[3-(3-fluoroazetidine-1-carbonyl)pentan-3-yl]-5-(3-methoxyazetidin-1-yl)pyridine-2-carboxamide] | 4.58 nM
10 | NC(=O)[C@@H]1CC(F)(F)CN1C(=O)c1ccc(OCC2CC2)c(-c2ccc(Cl)cc2)n1 [Example 39, (2S)-1-[6-(4-Chlorophenyl)-5-(cyclopropylmethoxy)pyridine-2-carbonyl]-4,4-difluoropyrrolidine-2-carboxamide] | 18 nM
11 | CCC(CC)(NC(=O)c1ccc(OCC2CC2)c(-c2cccc(Cl)c2)n1)C(=O)NC [Example 7, 6-(3-Chlorophenyl)-5-(cyclopropylmethoxy)-N-[3-(methylcarbamoyl)pentan-3-yl]pyridine-2-carboxamide] | 51.3 nM
12 | CC(C)(NC(=O)c1ccc(OCC2CC2)c(-c2cccc(Cl)c2)n1)c1nccs1 [Example 13, 6-(3-Chlorophenyl)-5-(cyclopropylmethoxy)-N-[2-(1,3-thiazol-2-yl)propan-2-yl]pyridine-2-carboxamide] | 23.1 nM
